For this test, the system named is human T cells. Description: Human T cell activation assay (anti-CD3 plus peptide, cytokine secretion). It counts as cell-based. As to the method:
FIGS. 11 and 12 show 150 peptide variants of the SG-3-0020 1-29 aa N-terminal+middle region, derived from a combinatorial phage display library, were tested for activation potential of human T cells. […] Increase in cytokine secretion was concordant in 3 donors.
For example, PBMCs were obtained from individual human donors.
T-cell activation was also determined as described previously (see above and International Application No. PCT/US2020/012431). […] Separate N-, MID, and C-terminal fragments lose activity. The data support that both N- and middle region are minimally required for binding and activation to T cells.

Setting [1] is: Table 11, 150 combinatorial library variants of SEQ ID NO:1.
Where [2] appears, read: Table 10, combinatorial library variants of SEQ ID NO:1.

As to “WSSAAKGKTHDHYGSGRMRDFGWHDWRFS [SEQ ID NO: 274]”, the mean_ES_IFN-γ under setting [1] came out at 0.8191.

As for “FPSGAKTKWHDHNPSGRMRDPPWHDWRFSa [SEQ ID NO: 273]”, the mean_ES_IFN-γ under setting [1] is 0.8203.

As for “MASAAKGKWHDHWGSGRHRPPPWHDWRVS [SEQ ID NO: 11]”, the mean_ES_IFN-γ under setting [2] is 1.237 and the mean_ES_IFN-γ under setting [1] amounted to 1.237.

For “FSSAAKTKWHDHYGSGRYRPPPWHDWRFS [SEQ ID NO: 355]”, the mean_ES_IFN-γ under setting [1] is −0.4086.

As for “WSSAAKGKTHDHYPSGRHRPPPWHDWRVS [SEQ ID NO: 253]”, under setting [1], the mean_ES_IFN-γ turned out to be 0.9469.

For “VTSAAKGKWHDHWPSGRYRDPPWHDWRVS [SEQ ID NO: 308]”, the mean_ES_IFN-γ under setting [1] turned out to be 0.588.

In the case of “WGSAAKGKTHDHNWSGRYRPPPWHDWRVS [SEQ ID NO: 302]”, the mean_ES_IFN-γ under setting [1] was determined as 0.6264.

On to “PTSAAKGKTHDHYPGGRYRDPPWHDWRAS [SEQ ID NO: 356]”, for which, under setting [1], the mean_ES_IFN-γ is reported as −0.5055.

In the case of “MSSGAKGKWHDHYGSGRHRPPPWHDWRVR [SEQ ID NO: 243]”, under setting [1], the mean_ES_IFN-γ is given as 0.9926.

As for “FASAAKGKTHDHYPSGRYRPPPWHDWRAS [SEQ ID NO: 298]”, the mean_ES_IFN-γ under setting [1] amounted to 0.6625.

With “MPSAAKGKWHDHYGSGRYRPPPWHDWRVR [SEQ ID NO: 326]”, the mean_ES_IFN-γ under setting [1] is 0.43.

Turning to “MGSAAKGKTHDHYPSGRMRPPPWHDWRGS [SEQ ID NO: 349]”, the mean_ES_IFN-γ under setting [1] is −0.09755.

On to “MASGAKGKWHDHYGGGRMRDPGWHDWRFS [SEQ ID NO: 342]”, for which the mean_ES_IFN-γ under setting [1] came out at 0.2325.

Take “WSSAAKGKTHDHNPSGRHRPPPWHDWRVS [SEQ ID NO: 304]”: under setting [1], the mean_ES_IFN-γ was 0.6137.

As to “WASGAKGKTHDHNPSGRWRDPGWHDWRGS [SEQ ID NO: 330]”, the mean_ES_IFN-γ under setting [1] amounted to 0.3705.

On to “FQSTAKGKTHDHWPSGRMRPPPWHDWRAS [SEQ ID NO: 267]”, for which the mean_ES_IFN-γ under setting [1] was found to be 0.8487.

For “WGSGAKGKTHDHNGGGRMRPPPWHDWRAS [SEQ ID NO: 334]”, the mean_ES_IFN-γ under setting [1] amounted to 0.3217.

On to “PVSAAKGKWHDHYPSGRWRDPPWHDWRAS [SEQ ID NO: 321]”, for which the mean_ES_IFN-γ under setting [1] came to 0.4882.

On to “WGSGAKGKTHDHWGSGRWRDPGWHDWRGS [SEQ ID NO: 5]”, for which the mean_ES_IFN-γ is, setting by setting: under setting [2], 1.324; under setting [1], 1.324.

“VLSTAKGKTHDHYPGGRMRPPPWHDWRAR [SEQ ID NO: 257]”: the mean_ES_IFN-γ under setting [1] was 0.918.

Turning to “FLSAAKGKTHDHNWGGRMRPPPWHDWRFS [SEQ ID NO: 255]”, the mean_ES_IFN-γ under setting [1] was found to be 0.935.

For “MGSAAKTKWHDHYPGGRMRPPPWHDWRFS [SEQ ID NO: 337]”, under setting [1], the mean_ES_IFN-γ was 0.2836.

“WLSTAKGKTHDHNWSGRYRPPPWHDWRVR [SEQ ID NO: 307]”: the mean_ES_IFN-γ under setting [1] was found to be 0.6005.

Take “VGSAAKTKTHDHYGGGRMRPPPWHDWRFS [SEQ ID NO: 331]”: under setting [1], the mean_ES_IFN-γ was 0.3468.

As for “MASAAKGKTHDHYPGGRMRPPPWHDWRAS [SEQ ID NO: 252]”, under setting [1], the mean_ES_IFN-γ is 0.9483.

As for “PVSAAKGKWHDHNWSGRMRPPPWHDWRAR [SEQ ID NO: 18]”, the mean_ES_IFN-γ reads like this: under setting [2], 1.169; under setting [1], 1.169.

As for “WSSGAKTKWHDHYGSGRHRDPKWHDWRGS [SEQ ID NO: 19]”, the mean_ES_IFN-γ under setting [2] was 1.147 and the mean_ES_IFN-γ under setting [1] worked out at 1.147.

With “FGSAAKGKTHDHYWSGRMRPPPWHDWRGS [SEQ ID NO: 34]”, the mean_ES_IFN-γ runs as follows: under setting [2], 1.028; under setting [1], 1.028.

Regarding “PVSAAKGKTHDHWPGGRMRDPPWHDWRAS [SEQ ID NO: 329]”, under setting [1], the mean_ES_IFN-γ stood at 0.3768.

As for “WQSAAKTKTHDHWPGGRMRPPPWHDWRAR [SEQ ID NO: 352]”, the mean_ES_IFN-γ under setting [1] was −0.2305.

Consider “MASAAKGKWHDHNPSGRHRDPGWHDWWGS [SEQ ID NO: 288]”, for which the mean_ES_IFN-γ under setting [1] stood at 0.7207.

For “SPSGAKGKTHDHYPSGRMRPPPWHDWRFS [SEQ ID NO: 261]”, under setting [1], the mean_ES_IFN-γ is listed as 0.8871.

With “MVSAAKTKTHDHNGGGRMRPPPWHDWRFS [SEQ ID NO: 258]”, the mean_ES_IFN-γ under setting [1] came to 0.9135.

As to “MPSAAKTKWHDHYPGGRMRPPPWHDWRGR [SEQ ID NO: 16]”, the mean_ES_IFN-γ by setting is: under setting [2], 1.186; under setting [1], 1.186.

On to “WGSAAKGKTHDHWPSGRMRDPPWHDWRVS [SEQ ID NO: 256]”, for which, under setting [1], the mean_ES_IFN-γ is recorded as 0.9254.

For “SPSGAKTKWHDHNPGGRMRPPPWHDWRAR [SEQ ID NO: 324]”, the mean_ES_IFN-γ under setting [1] is recorded as 0.4459.

As for “WGSAAKGKWHDHYPSGRMRPPPWHDWRVR [SEQ ID NO: 275]”, the mean_ES_IFN-γ under setting [1] came to 0.8178.

Take “PLSAAKTKTHDHNWSGRYRPPPWHDWRAR [SEQ ID NO: 282]”: the mean_ES_IFN-γ under setting [1] was determined as 0.7514.

In the case of “FASAAKGKTHDHYWSGRYRPPPWHDWRAS [SEQ ID NO: 33]”, the mean_ES_IFN-γ by setting is: under setting [2], 1.036; under setting [1], 1.036.

In the case of “WSSAAKGKTHDHWGGGRYRPPPWHDWRAS [SEQ ID NO: 17]”, the mean_ES_IFN-γ runs as follows: under setting [2], 1.172; under setting [1], 1.172.

As to “WVSAAKGKWHDHYGSGRMRDPPWHDWWGS [SEQ ID NO: 24]”, the mean_ES_IFN-γ came to 1.104 under setting [2] and 1.104 under setting [1].

Regarding “WGSAAKGKTHDHWPSGRHRDPPWHDWRVR [SEQ ID NO: 31]”, the mean_ES_IFN-γ under setting [2] turned out to be 1.044 and the mean_ES_IFN-γ under setting [1] is reported as 1.044.

As to “MPSAAKGKTHDHYPSGRMRPPPWHDWRGR [SEQ ID NO: 333]”, the mean_ES_IFN-γ under setting [1] was 0.3234.

Turning to “VTSAAKGKTHDHYPSGRYRPPPWHDWRGR [SEQ ID NO: 310]”, the mean_ES_IFN-γ under setting [1] turned out to be 0.5718.

With “WTSGAKGKWHDHYGGGRYRDPGWHDWRFS [SEQ ID NO: 280]”, under setting [1], the mean_ES_IFN-γ was 0.7716.

As to “MVSTAKGKTHDHYGSGRYRPPPWHDWRGS [SEQ ID NO: 340]”, the mean_ES_IFN-γ under setting [1] stood at 0.276.

On to “MPSAAKTKWHDHNWSGRMRPPPWHDWRAR [SEQ ID NO: 270]”, for which, under setting [1], the mean_ES_IFN-γ came to 0.8446.

For the substance “MGSGAKGKTHDHNWGGRHRDPGWHDWWVS [SEQ ID NO: 285]”, the mean_ES_IFN-γ under setting [1] was 0.7319.

In the case of “WQSAAKTKTHDHWPSGRYRPPPWHDWRAS [SEQ ID NO: 294]”, under setting [1], the mean_ES_IFN-γ is 0.6837.

With “VTSTAKGKTHDHNWSGRYRPPPWHDWRAR [SEQ ID NO: 9]”, the mean_ES_IFN-γ was 1.28 under setting [2] and 1.28 under setting [1].

On to “WVSAAKGKTHDHWGSGRHRDPPWHDWRAR [SEQ ID NO: 30]”, for which the mean_ES_IFN-γ stood at 1.052 under setting [2] and 1.052 under setting [1].

“VTSAAKGKTHDHYPSGRMRPPPWHDWRFS [SEQ ID NO: 312]”: under setting [1], the mean_ES_IFN-γ is given as 0.5616.

For “MASTAKGKTHDHWPGGRMRPPPWHDWRGS [SEQ ID NO: 320]”, under setting [1], the mean_ES_IFN-γ is 0.5063.

Turning to “MASAAKTKWHDHYPSGRMRPPPWHDWRAR [SEQ ID NO: 27]”, the mean_ES_IFN-γ reads like this: under setting [2], 1.075; under setting [1], 1.075.

Consider “FASAAKGKTHDHWGSGRYRPPPWHDWRGS [SEQ ID NO: 244]”, for which the mean_ES_IFN-γ under setting [1] stood at 0.9882.

For “MVSTAKGKTHDHYPSGRYRPPPWHDWRFS [SEQ ID NO: 29]”, the mean_ES_IFN-γ is, setting by setting: under setting [2], 1.052; under setting [1], 1.052.

“WASGAKGKTHDHYPSGRMRPPPWHDWRWS [SEQ ID NO: 278]”: under setting [1], the mean_ES_IFN-γ was 0.7784.

“WASGAKGKWHDHYGSGRYRPPPWHDWRGS [SEQ ID NO: 290]”: the mean_ES_IFN-γ under setting [1] is reported as 0.712.

Turning to “VVSTAKGKTHDHYPGGRMRPPPWHDWRAR [SEQ ID NO: 251]”, under setting [1], the mean_ES_IFN-γ turned out to be 0.952.

These data come from patent US20230272016A1, “PEPTIDES FOR IMMUNOTHERAPY” (Second Genome, Inc., priority 2020, published 2023).
